“And” between values parts separate entries of the source, which are not always exact repeats. Equal entries are not always repeated.
Experiments:
PDK1 = PDK1 (Homo sapiens, UniProt O15530); test: Z'-LYTE kinase selectivity; assay type: biochemical; settings: read-out: IC50 PDK1
CDK2 = CDK2 (Homo sapiens, UniProt P24941); test: Z'-LYTE kinase selectivity; assay type: biochemical
MAP4K4 = MAP4K4 (Homo sapiens, UniProt O95819); test: Z'-LYTE kinase selectivity; assay type: biochemical
SRC = SRC (Homo sapiens, UniProt P12931); test: Z'-LYTE kinase selectivity; assay type: biochemical
TAOK2 = TAOK2 (Homo sapiens, UniProt Q9UL54); test: Z'-LYTE kinase selectivity; assay type: biochemical
MINK = MINK (Homo sapiens, UniProt Q8N4C8); test: Z'-LYTE kinase selectivity; assay type: biochemical
FGFR1 = FGFR1 (Homo sapiens, UniProt P11362); test: Z'-LYTE kinase selectivity
MST4 = MST4 (Homo sapiens, UniProt Q9P289); test: Z'-LYTE kinase selectivity; assay type: biochemical
Sequence of MST4 (Q9P289 whole entry): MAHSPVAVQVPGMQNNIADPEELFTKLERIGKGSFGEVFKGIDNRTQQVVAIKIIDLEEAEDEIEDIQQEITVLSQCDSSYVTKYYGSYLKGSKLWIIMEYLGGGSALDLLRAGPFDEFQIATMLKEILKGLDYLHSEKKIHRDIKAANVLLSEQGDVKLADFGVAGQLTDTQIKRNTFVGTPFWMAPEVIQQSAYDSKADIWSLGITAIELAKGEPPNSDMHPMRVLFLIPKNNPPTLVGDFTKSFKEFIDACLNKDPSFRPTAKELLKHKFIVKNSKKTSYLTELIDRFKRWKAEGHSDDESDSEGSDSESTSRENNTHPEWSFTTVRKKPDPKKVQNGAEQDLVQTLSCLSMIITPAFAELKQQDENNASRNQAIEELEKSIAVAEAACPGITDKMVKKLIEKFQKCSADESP

ABL = ABL (Homo sapiens, UniProt P00519); test: Z'-LYTE kinase selectivity; assay type: biochemical
P38 alpha = P38 alpha (Homo sapiens, UniProt Q16539); test: Z'-LYTE kinase selectivity; assay type: biochemical
Sequence of P38 alpha (Q16539 whole entry): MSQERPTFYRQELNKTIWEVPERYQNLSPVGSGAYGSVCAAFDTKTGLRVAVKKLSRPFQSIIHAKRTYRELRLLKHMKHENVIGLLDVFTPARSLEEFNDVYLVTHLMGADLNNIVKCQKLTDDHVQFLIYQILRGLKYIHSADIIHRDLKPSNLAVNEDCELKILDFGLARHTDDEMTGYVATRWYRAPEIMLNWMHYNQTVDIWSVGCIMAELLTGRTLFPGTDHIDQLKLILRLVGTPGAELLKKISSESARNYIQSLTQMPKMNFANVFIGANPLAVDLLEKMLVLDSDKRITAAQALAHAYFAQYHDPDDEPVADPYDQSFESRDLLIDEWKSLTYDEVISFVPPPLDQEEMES

[1] = test system: LU-01-0015 (HIP-ALK) patient derived lung-tumor xenografts; test: LU-01-0015 patient-derived xenograft model (tumor volume, body weight); assay type: in vivo, BALB/c nude mice; settings: for Tumor volume Mean: group mean; for Tumor volume: individual mouse, in mm³
Experimental: Female BALB/c nude mice (4–6 weeks old) were provided by Shanghai Sipple-Bikai Laboratory Animal Co., Ltd. and Beijing Vital River Laboratory Animal Technology Co., Ltd. The mice were housed in a specific pathogen-free environment under a 12 h light/dark cycle, and had free access to sterile animal feed and water.
PDX and CDX models were used for in vivo studies. Patient-derived tumors tissues were divided into about 30 mm^3 and transplanted into the right dorsal subcutis. Treatment began when the tumor size reached to 200 mm^3. The mice were randomly assignied into the corresponding dosing groups (9 mice in each group). Drugs were deliverd via daily oral for 4 weeks. Tumor size was measured periodically using a digital caliper (Cal Pro, Sylvac, Switzerland), and tumor volume was calculated as 0.5 × length × width^2. For more detailed information, please refer to Supplementary materials. All procedures and protocols of xenograft models were approved by the Institutional Animal Care and Use Committee of WuXi AppTec.
Patient-derived tumor tissue was segmented into small pieces of approximately 20–30 mm^3 and transplanted subcutaneously into the right back of mice. When the tumor volume reached 150-200 mm^3, the mice were randomly divided into corresponding groups (9 mice in each group, female). Administered by gavage once daily for 4 weeks.

KDR = KDR (Homo sapiens, UniProt P35968); test: Z'-LYTE kinase selectivity; assay type: biochemical; settings: read-out: IC50 KDR
Sequence of KDR (P35968 20-1356): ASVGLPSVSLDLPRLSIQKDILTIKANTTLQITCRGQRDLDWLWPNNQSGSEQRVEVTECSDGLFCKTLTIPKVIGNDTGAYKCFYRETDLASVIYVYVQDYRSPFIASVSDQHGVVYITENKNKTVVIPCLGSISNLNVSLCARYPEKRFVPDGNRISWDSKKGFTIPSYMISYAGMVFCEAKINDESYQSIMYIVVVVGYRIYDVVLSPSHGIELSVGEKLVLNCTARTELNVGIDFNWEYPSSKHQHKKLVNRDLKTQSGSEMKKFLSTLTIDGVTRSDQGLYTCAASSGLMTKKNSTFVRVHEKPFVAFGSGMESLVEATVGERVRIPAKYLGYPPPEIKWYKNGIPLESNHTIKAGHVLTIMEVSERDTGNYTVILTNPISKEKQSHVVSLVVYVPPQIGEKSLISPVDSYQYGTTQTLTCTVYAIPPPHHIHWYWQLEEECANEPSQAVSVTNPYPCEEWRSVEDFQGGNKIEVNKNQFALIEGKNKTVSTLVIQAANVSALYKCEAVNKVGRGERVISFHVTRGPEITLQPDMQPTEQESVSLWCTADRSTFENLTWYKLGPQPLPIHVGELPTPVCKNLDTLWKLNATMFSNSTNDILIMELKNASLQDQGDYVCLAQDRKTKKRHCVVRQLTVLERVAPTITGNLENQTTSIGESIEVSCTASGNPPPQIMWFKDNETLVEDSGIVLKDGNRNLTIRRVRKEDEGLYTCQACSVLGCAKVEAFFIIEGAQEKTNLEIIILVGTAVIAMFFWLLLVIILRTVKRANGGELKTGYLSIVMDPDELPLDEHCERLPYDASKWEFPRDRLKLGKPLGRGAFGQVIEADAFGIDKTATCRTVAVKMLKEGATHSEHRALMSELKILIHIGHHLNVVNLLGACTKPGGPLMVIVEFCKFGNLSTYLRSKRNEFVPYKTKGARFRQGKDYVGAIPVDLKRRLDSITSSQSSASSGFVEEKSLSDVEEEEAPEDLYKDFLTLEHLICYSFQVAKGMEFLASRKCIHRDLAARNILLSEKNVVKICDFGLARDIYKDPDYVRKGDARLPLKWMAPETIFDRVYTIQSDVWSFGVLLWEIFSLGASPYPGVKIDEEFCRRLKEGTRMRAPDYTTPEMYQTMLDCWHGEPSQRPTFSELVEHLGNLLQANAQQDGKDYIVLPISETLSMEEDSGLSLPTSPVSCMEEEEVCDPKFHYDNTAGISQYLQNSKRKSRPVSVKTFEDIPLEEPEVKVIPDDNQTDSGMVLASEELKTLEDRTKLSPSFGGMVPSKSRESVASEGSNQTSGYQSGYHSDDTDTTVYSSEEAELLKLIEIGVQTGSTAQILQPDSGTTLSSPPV

MAPKAPK2 = MAPKAPK2 (Homo sapiens, UniProt P49137); test: Z'-LYTE kinase selectivity; assay type: biochemical
ALK^C1156Y = ALK^C1156Y (Homo sapiens, UniProt Q9UM73, C1156Y); test: HTRF kinase activity assay; assay type: biochemical
Sequence of ALK^C1156Y (Q9UM73 19-1620 C1156Y): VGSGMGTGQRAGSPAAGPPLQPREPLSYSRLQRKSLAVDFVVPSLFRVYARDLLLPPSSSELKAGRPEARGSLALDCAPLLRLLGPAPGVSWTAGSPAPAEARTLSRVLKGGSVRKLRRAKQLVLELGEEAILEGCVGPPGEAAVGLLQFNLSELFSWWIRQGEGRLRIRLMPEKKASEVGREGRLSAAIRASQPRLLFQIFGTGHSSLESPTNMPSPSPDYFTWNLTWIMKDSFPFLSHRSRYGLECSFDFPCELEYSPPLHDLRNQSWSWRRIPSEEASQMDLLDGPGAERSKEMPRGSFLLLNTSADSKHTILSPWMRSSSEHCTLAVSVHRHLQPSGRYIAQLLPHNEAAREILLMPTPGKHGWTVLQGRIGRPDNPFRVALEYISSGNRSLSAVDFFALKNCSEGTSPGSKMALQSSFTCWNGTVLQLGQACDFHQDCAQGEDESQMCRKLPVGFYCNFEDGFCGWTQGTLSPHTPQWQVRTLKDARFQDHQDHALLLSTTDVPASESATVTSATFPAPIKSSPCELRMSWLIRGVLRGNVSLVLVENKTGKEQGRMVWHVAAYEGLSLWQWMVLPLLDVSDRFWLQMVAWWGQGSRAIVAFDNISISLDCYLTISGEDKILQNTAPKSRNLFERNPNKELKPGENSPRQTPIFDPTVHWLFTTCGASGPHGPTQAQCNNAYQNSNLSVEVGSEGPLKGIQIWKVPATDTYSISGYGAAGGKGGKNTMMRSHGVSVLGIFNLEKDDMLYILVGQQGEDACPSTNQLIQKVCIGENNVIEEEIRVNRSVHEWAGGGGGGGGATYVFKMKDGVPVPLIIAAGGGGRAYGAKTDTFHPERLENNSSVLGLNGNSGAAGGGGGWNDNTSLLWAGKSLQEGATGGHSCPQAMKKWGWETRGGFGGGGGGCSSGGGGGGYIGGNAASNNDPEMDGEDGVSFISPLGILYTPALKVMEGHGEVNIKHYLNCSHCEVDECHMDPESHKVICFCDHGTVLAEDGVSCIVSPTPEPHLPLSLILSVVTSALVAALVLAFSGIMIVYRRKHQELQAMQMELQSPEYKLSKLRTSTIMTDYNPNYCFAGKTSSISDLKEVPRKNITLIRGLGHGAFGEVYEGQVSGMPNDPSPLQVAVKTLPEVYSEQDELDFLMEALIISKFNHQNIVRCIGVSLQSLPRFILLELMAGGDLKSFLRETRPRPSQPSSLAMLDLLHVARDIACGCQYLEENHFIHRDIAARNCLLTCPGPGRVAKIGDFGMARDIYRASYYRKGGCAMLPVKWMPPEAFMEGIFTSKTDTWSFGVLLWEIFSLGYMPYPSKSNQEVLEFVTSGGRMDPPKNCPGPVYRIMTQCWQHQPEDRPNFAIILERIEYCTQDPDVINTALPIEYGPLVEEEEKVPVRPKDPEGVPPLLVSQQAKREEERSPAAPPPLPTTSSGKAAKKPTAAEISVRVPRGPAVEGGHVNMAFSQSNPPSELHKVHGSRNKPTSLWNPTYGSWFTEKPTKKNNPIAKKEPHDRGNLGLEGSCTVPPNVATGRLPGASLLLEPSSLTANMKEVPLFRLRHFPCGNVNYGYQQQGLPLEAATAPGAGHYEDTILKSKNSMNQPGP
Experimental: After the kinase proteins, Ulight-peptide species, adenosine triphosphate (ATP), and compound were mixed, the reaction was carried out at room temperature. Reactions were quenched by the addition of ethylene diamine tetraacetic acid buffer containing Eu antibody and XL665-streptavidin at the indicated time points. Plate reading was performed using an Envision (Perkin Elmer, MA, USA) multifunctional microplate reader.

PKA = PKA (Homo sapiens, UniProt P17612); test: Z'-LYTE kinase selectivity; assay type: biochemical
INSR = INSR (Homo sapiens, UniProt P06213); test: Z'-LYTE kinase selectivity; assay type: biochemical
Sequence of INSR (P06213 28-1382): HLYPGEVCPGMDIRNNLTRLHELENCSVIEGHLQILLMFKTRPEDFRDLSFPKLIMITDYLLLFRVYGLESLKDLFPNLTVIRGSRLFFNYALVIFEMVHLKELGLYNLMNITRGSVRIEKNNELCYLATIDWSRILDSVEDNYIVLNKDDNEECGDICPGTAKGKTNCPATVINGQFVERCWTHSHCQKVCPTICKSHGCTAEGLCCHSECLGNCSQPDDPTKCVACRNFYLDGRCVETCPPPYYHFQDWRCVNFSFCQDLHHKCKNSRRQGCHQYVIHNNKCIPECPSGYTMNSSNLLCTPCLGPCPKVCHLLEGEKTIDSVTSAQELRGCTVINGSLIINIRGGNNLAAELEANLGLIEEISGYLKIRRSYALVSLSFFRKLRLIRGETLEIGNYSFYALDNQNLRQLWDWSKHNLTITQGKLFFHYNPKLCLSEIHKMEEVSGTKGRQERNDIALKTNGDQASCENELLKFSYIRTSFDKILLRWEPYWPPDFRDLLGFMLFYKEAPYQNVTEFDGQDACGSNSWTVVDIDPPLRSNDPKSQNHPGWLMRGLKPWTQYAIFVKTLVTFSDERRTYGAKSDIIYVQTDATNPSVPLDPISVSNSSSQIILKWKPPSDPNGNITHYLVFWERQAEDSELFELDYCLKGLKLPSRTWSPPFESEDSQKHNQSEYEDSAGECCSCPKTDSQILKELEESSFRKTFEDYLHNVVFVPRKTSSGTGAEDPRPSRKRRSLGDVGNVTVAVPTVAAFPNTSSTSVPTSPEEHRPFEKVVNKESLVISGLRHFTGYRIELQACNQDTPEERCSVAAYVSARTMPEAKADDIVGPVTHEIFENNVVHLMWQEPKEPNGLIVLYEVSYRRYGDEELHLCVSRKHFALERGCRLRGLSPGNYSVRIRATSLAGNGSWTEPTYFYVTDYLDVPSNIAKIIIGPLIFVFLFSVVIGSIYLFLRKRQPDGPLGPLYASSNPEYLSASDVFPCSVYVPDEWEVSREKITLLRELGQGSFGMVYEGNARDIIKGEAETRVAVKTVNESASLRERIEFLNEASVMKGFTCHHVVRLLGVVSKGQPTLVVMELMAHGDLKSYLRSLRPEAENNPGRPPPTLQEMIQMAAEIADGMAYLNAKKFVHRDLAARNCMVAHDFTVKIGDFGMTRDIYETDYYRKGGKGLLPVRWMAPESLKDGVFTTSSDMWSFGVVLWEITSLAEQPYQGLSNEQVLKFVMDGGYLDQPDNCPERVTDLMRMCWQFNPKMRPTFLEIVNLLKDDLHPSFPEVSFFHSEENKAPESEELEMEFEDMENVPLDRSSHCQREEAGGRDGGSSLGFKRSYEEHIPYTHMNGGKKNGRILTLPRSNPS

c-MET = c-MET (Homo sapiens, UniProt P08581); test: Z'-LYTE kinase selectivity; assay type: biochemical
JAK2 = JAK2 (Homo sapiens, UniProt O60674); test: Z'-LYTE kinase selectivity; assay type: biochemical
[2] = 5 mg/kg PO QD×4 W, day 0 after administration
[3] = 5 mg/kg PO QD×4 W, day 3 after administration
[4] = 5 mg/kg PO QD×4 W, day 7 after administration
[5] = 5 mg/kg PO QD×4 W, day 10 after administration
[6] = 5 mg/kg PO QD×4 W, day 14 after administration
[7] = 5 mg/kg PO QD×4 W, day 17 after administration
[8] = 5 mg/kg PO QD×4 W, day 21 after administration
[9] = 5 mg/kg PO QD×4 W, day 24 after administration
[10] = 5 mg/kg PO QD×4 W, day 27 after administration
[11] = 10 mg/kg (D0-D7)/2.5 mg/kg PO QD×4 W, day 0 after administration
[12] = 10 mg/kg (D0-D7)/2.5 mg/kg PO QD×4 W, day 3 after administration
[13] = 10 mg/kg (D0-D7)/2.5 mg/kg PO QD×4 W, day 7 after administration
[14] = 10 mg/kg (D0-D7)/2.5 mg/kg PO QD×4 W, day 10 after administration
[15] = 10 mg/kg (D0-D7)/2.5 mg/kg PO QD×4 W, day 14 after administration
[16] = 10 mg/kg (D0-D7)/2.5 mg/kg PO QD×4 W, day 17 after administration
[17] = 10 mg/kg (D0-D7)/2.5 mg/kg PO QD×4 W, day 21 after administration
[18] = 10 mg/kg (D0-D7)/2.5 mg/kg PO QD×4 W, day 24 after administration
[19] = 10 mg/kg (D0-D7)/2.5 mg/kg PO QD×4 W, day 27 after administration
[20] = 15 mg/kg PO QD×4 W, day 0 after administration
[21] = 15 mg/kg PO QD×4 W, day 3 after administration
[22] = 15 mg/kg PO QD×4 W, day 7 after administration
[23] = 15 mg/kg PO QD×4 W, day 10 after administration
[24] = 15 mg/kg PO QD×4 W, day 14 after administration
[25] = 15 mg/kg PO QD×4 W, day 17 after administration
[26] = 15 mg/kg PO QD×4 W, day 21 after administration
[27] = 15 mg/kg PO QD×4 W, day 24 after administration
[28] = 15 mg/kg PO QD×4 W, day 27 after administration

Q: For COc1cc(N2CCC3(CCN(C)CC3)CC2)ccc1Nc1ncc(Cl)c(Nc2ccccc2P(C)(C)=O)n1 [Iruplinalkib], which IC50 (PDK1) is on record?
A: > 10 µM

Q: And the IC50 (CDK2)?
A: 1560 ± 1130 nM

Q: And the IC50 (MAP4K4)?
A: 1840 ± 679 nM

Q: What about the IC50 (SRC) of the same compound?
A: 1680 ± 872 nM

Q: And the IC50 (TAOK2)?
A: 1500 ± 442 nM

Q: What about the IC50 (MINK) of the same compound?
A: 3.89 ± 1.06 µM

Q: And the IC50 (FGFR1)?
A: 249 ± 71 nM

Q: What about the IC50 (MST4) of the same compound?
A: 1400 ± 251 nM

Q: What about the IC50 (ABL) of the same compound?
A: 576 ± 108 nM

Q: What about the IC50 (P38 alpha) of the same compound?
A: > 10 µM

Q: What about the Tumor volume Mean [1, 2] of the same compound?
A: 149 mm³

Q: What about the Tumor volume [1, 2] of the same compound?
A: 165

Q: What about the Tumor volume Mean [1, 3] of the same compound?
A: 127 mm³

Q: And the Tumor volume [1, 3]?
A: 165

Q: And the Tumor volume Mean [1, 4]?
A: 82 mm³

Q: What about the Tumor volume [1, 4] of the same compound?
A: 96

Q: And the Tumor volume Mean [1, 5]?
A: 79 mm³

Q: What about the Tumor volume [1, 5] of the same compound?
A: 80

Q: And the Tumor volume Mean [1, 6]?
A: 70 mm³

Q: What about the Tumor volume [1, 6] of the same compound?
A: 75

Q: What about the Tumor volume Mean [1, 7] of the same compound?
A: 81 mm³

Q: What about the Tumor volume [1, 7] of the same compound?
A: 96

Q: And the Tumor volume Mean [1, 8]?
A: 89 mm³

Q: What about the Tumor volume [1, 8] of the same compound?
A: 121

Q: What about the Tumor volume Mean [1, 9] of the same compound?
A: 85 mm³

Q: What about the Tumor volume [1, 9] of the same compound?
A: 118

Q: What about the Tumor volume Mean [1, 10] of the same compound?
A: 94 mm³

Q: What about the Tumor volume [1, 10] of the same compound?
A: 104

Q: What about the Tumor volume Mean [1, 11] of the same compound?
A: 150 mm³

Q: What about the Tumor volume [1, 11] of the same compound?
A: 136 and 117

Q: And the Tumor volume Mean [1, 12]?
A: 124 mm³

Q: What about the Tumor volume [1, 12] of the same compound?
A: 115 and 76

Q: And the Tumor volume Mean [1, 13]?
A: 77 mm³

Q: What about the Tumor volume [1, 13] of the same compound?
A: 71 and 51

Q: And the Tumor volume Mean [1, 14]?
A: 60 mm³

Q: What about the Tumor volume [1, 14] of the same compound?
A: 49 and 43

Q: What about the Tumor volume Mean [1, 15] of the same compound?
A: 63 mm³

Q: And the Tumor volume [1, 15]?
A: 48

Q: And the Tumor volume Mean [1, 16]?
A: 77 mm³

Q: What about the Tumor volume [1, 16] of the same compound?
A: 58

Q: And the Tumor volume Mean [1, 17]?
A: 107 mm³

Q: And the Tumor volume [1, 17]?
A: 56

Q: And the Tumor volume Mean [1, 18]?
A: 106 mm³

Q: And the Tumor volume [1, 18]?
A: 57

Q: What about the Tumor volume Mean [1, 19] of the same compound?
A: 127 mm³

Q: And the Tumor volume [1, 19]?
A: 65 and 99

Q: And the Tumor volume Mean [1, 20]?
A: 149 mm³

Q: And the Tumor volume [1, 20]?
A: 101 and 162 and 129 and 99 and 217 and 147 and 109 and 207 and 174

Q: And the Tumor volume Mean [1, 21]?
A: 115 mm³

Q: What about the Tumor volume [1, 21] of the same compound?
A: 81 and 117 and 84 and 63 and 150 and 118 and 79 and 154 and 190

Q: And the Tumor volume Mean [1, 22]?
A: 66 mm³

Q: What about the Tumor volume [1, 22] of the same compound?
A: 51 and 61 and 57 and 56 and 78 and 72 and 52 and 71 and 98

Q: And the Tumor volume Mean [1, 23]?
A: 54 mm³

Q: And the Tumor volume [1, 23]?
A: 48 and 61 and 44 and 35 and 63 and 79 and 45

Q: What about the Tumor volume Mean [1, 24] of the same compound?
A: 49 mm³

Q: And the Tumor volume [1, 24]?
A: 41 and 57 and 43 and 31 and 72 and 46 and 44 and 60

Q: And the Tumor volume Mean [1, 25]?
A: 51 mm³

Q: And the Tumor volume [1, 25]?
A: 44 and 92 and 41 and 24 and 68 and 47 and 32 and 42

Q: What about the Tumor volume Mean [1, 26] of the same compound?
A: 49 mm³

Q: What about the Tumor volume [1, 26] of the same compound?
A: 35 and 87 and 45 and 30 and 53 and 59 and 37 and 41 and 57

Q: And the Tumor volume Mean [1, 27]?
A: 43 mm³

Q: And the Tumor volume [1, 27]?
A: 29 and 56 and 37 and 23 and 45 and 53 and 34 and 22 and 91

Q: What about the Tumor volume Mean [1, 28] of the same compound?
A: 49 mm³

Q: What about the Tumor volume [1, 28] of the same compound?
A: 30 and 67 and 38 and 27 and 62 and 54 and 44 and 42 and 78

Q: What about the “tumor growth inhibition” value ([1]; LU-01-0015 and NCI-H3122 xenograft models, all P < 0.05) of the same compound?
A: able to inhibit tumor growth

Q: What about the “tumor inhibition effect compared with brigatinib” value ([1]; crizotinib-resistant model) of the same compound?
A: significantly better than that of brigatinib

Q: What about the “effect on body weight” value ([1]; nude mouse xenograft models (LU-01-0015, NCI-H3122), all P ≥ 0.05) of the same compound?
A: no effect

Q: And the IC50 (KDR)?
A: 260 ± 128 nM

Q: And the IC50 (MAPKAPK2)?
A: > 10 µM

Q: And the IC50 (ALK^C1156Y)?
A: 9.28 nM and < 10 nM

Q: And the IC50 (PKA)?
A: > 10 µM

Q: What about the IC50 (INSR) of the same compound?
A: 699 ± 261 nM

Q: And the IC50 (c-MET)?
A: 2940 ± 232 nM

Q: What about the IC50 (JAK2) of the same compound?
A: 595 ± 12 nM
